{
  "source": "paper PMC6842543",
  "about": "“Antiparasitic effect of synthetic aromathecins on Leishmania infantum” (BMC Veterinary Research, 2019)",
  "key": {"Murine Splenocytes": {"system": "Murine Splenocytes", "experiment": "Cytotoxicity on uninfected splenic explants (Alamar Blue)", "assay_type": "cell-based, BALB/c mice", "method": "(§1) The spleens were washed with cold phosphate-buffered saline (PBS), cut in small pieces and incubated for 20 min with 5 mL of 2 mg/mL collagenase D (Sigma) prepared in buffer (10 mM HEPES, pH 7.4, 150 mM NaCl, 5 mM KCl, 1 mM MgCl2 and 1.8 mM CaCl2). After that, the cell suspension obtained was passed through a 100 μm cell strainer, harvested by centrifugation (500×g for 7 min at 4 °C), washed twice with PBS, and cultured at 37 °C under 5% CO2 atmosphere in RPMI medium (Gibco) supplemented with 10 mM HEPES, 1 mM sodium pyruvate, 1xRPMI 1640 vitamin mix, 10% (v/v) FBS, 50 U/mL penicillin and 50 μg/mL streptomycin (Calvo-Álvarez et al., 2015).\n(§2) The viability of cultured parasites in the presence of different concentrations of aromathecins was determined by measuring the reduction of infrared fluorescence emitted by free-living promastigotes/amastigotes with respect to negative controls of each form of the parasite treated with DMSO (up to 0.1% final concentration) as a vehicle. […] After 72 h incubation at 26 °C, the infrared fluorescence emitted at 708 nm by viable promastigotes/amastigotes was measured in an Odyssey (Li-Cor) infrared imaging system. Similarly, the cytotoxic effect (CC50) of aromathecins on uninfected splenic explants from BALB/c mice (cells that naturally harbor the amastigote stage) was measured by the Alamar Blue (Invitrogen) assay. The selectivity index (SI) was determined as the relationship between the CC50 value and the EC50 value for amastigotes. CC50 and EC50 were calculated by nonlinear analysis using the Sigma-Plot 10.0 statistical package. The aromathecins were dissolved in DMSO and stored at − 20 °C before their use as fresh aliquots."}, "[1]": {"system": "L. infantum promastigotes", "experiment": "In vitro iRFP L. infantum promastigotes viability assay (infrared fluorescence)", "assay_type": "cell-based, Leishmania infantum", "conditions": "iRFP-L. infantum promastigotes, 72 h, 26 °C, fluorescence at 708 nm; average of three experiments by duplicate; read-out: EC50 L. infantum promastigotes", "method": "(§3) Two series of aromathecins (Table 1) have been tested against both stages of L. infantum, free-living promastigotes and intracellular amastigotes harbored in mouse splenic cells. Experiments were carried out using a genetically modified L. infantum strain that constitutively produces the iRFP protein. This makes it possible to evaluate the viability of parasites measuring the fluorescence emitted at 708 nm.\nThe antiparasitic activity of the compounds was assessed on the genetically modified iRFP L. infantum strain, which constitutively produces the infrared fluorescent protein (iRFP) when cells are viable. iRFP L. infantum was grown at 26 °C in M-199 medium (Gibco) supplemented with 25 mM HEPES pH 7.2, 0.1 mM adenine, 0.0005% (w/v) hemin, 2 μg/mL biopterin, 0.0001% (w/v) biotin, 10% (v/v) heat-inactivated fetal bovine serum (FBS) and an antibiotic cocktail comprising 50 U/mL penicillin and 50 μg/mL streptomycin.\nas §2"}, "L. infantum amastigotes": {"system": "L. infantum amastigotes", "experiment": "Ex vivo murine splenic explant culture with intramacrophagic iRFP L. infantum amastigotes", "assay_type": "cell-based, Leishmania infantum", "conditions": "splenic-infecting amastigotes, ex vivo explants from infected BALB/c mice, 72 h; read-out: EC50 L. infantum amastigotes", "method": "as §3\nPrimary splenocyte cultures containing intramacrophagic amastigotes were obtained from dissected spleens of female BALB/c mice infected intraperitoneally with 1.5 × 10^9 metacyclic iRFP L. infantum promastigotes, 5 weeks before their sacrifice. Mice were obtained commercially (Janvier-Labs). Animals were housed in specific-pathogen free facilities and they were euthanized by cervical dislocation without anesthesia. These protocols were approved by the Animal Care Committee of University of Leon (project license SAF2017–83575-R), which complies with European Union Legislation (2010/63/UE) and Spanish Act (RD 53/2013).\nas §1, §2"}},
  "data": [
    {"molecule": "C[C@@H]1[C@H](O)[C@@H](C)/C=C/C=C/C=C/C=C/C=C/C=C/C=C/[C@H](O[C@@H]2O[C@H](C)[C@@H](O)[C@H](N)[C@@H]2O)C[C@@H]2O[C@](O)(C[C@@H](O)C[C@@H](O)[C@H](O)CC[C@@H](O)C[C@@H](O)CC(=O)O[C@H]1C)C[C@H](O)[C@H]2C(=O)O", "note": "[AMB, reference compound]", "values": [
      {"measurement": "CC50", "setting": "Murine Splenocytes", "value": "> 20000", "unit": "nM"},
      {"measurement": "EC50", "setting": "[1]", "value": "800 ± 100", "unit": "nM"},
      {"measurement": "EC50", "setting": "L. infantum amastigotes", "value": 300, "unit": "nM"}
    ]}
  ]
}
